Experimental data taken from ChEMBL document CHEMBL1201862, “PubChem BioAssay data set” (2004).
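Results reflect a 48-hour exposure of cells in 96-well plates to compound at five concentrations. GI50 is the concentration that inhibits growth by half.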 The source made the active and inactive calls. Cut-off read from the data, not from the text of the source: active = GI50 up to about 1.1 µM and inactive = higher.

Columns and labels:
Assay in all cases: NCI-60 cell line screen, 48 h
[1] = system: RPMI-8226
[2] = system: HT-29
[3] = system: EKVX
[4] = system: HL-60
[5] = system: SK-OV-3
[6] = system: SNB-19
[7] = system: OVCAR-5
[8] = system: DU-145
[9] = system: SK-MEL-28
[10] = system: UACC-257
[11] = system: U-251
[12] = system: NCI-H23
[13] = system: K562
[14] = system: MDA-MB-231
[15] = system: SW-620
[16] = system: SK-MEL-5
[17] = system: TK-10
[18] = system: IGROV-1
[19] = system: HOP-62
[20] = system: PC-3
[21] = system: NCI-H460
[22] = system: BT-549
[23] = system: NCI-H226
[24] = system: OVCAR-8
[25] = system: SF-268
[26] = system: LOX IMVI
[27] = system: UACC-62
[28] = system: SF-295
[29] = system: MCF7
[30] = system: M14
[31] = system: MOLT-4
[32] = system: HCT-116
[33] = system: 786-0
[34] = system: A498
[35] = system: SK-MEL-2
[36] = system: NCI/ADR-RES
[37] = system: UO-31
[38] = system: CAKI-1
[39] = system: MDA-N
[40] = system: KM12
[41] = system: SN12C
[42] = system: ACHN
[43] = system: CCRF-CEM
[44] = system: Hs-578T
[45] = system: HCT-15
[46] = system: OVCAR-3
[47] = system: RXF 393
[48] = system: SF-539
[49] = system: MDA-MB-435
[50] = system: Malme-3M
[51] = system: T47D
[52] = system: COLO 205
[53] = system: A549
[54] = system: SNB-75
[55] = system: HOP-92
[56] = system: OVCAR-4
[57] = system: NCI-H522

Measured: GI50

O=C(c1cccs1)N(C(=O)N1CCC(c2ccccc2)CC1)c1ccccc1
inactive: [1] 12.6 µM | [2] 25.4 µM | [3] 7.67 µM | [4] 28.8 µM | [5] 88.3 µM | [6] > 100 µM | [7] > 100 µM | [8] > 100 µM | [9] 43.9 µM | [10] 40 µM | [11] 46 µM | [12] 40.6 µM | [13] 22.7 µM | [14] > 100 µM | [15] 51.5 µM | [16] 16.8 µM | [17] 67 µM | [18] 14.7 µM | [19] 36 µM | [21] 43.7 µM | [22] 27 µM | [23] 34 µM | [24] 39.4 µM | [25] 73.6 µM | [26] 41.5 µM | [27] 50.6 µM | [28] 42.7 µM | [29] 35.5 µM | [30] 40.6 µM | [31] 34.8 µM | [32] 42.5 µM | [33] > 100 µM | [34] 51.4 µM | [35] 13.8 µM | [36] 24.8 µM | [37] 18 µM | [38] > 100 µM | [39] 43.8 µM | [40] 14.4 µM | [41] 62.2 µM | [42] 63.1 µM | [43] 95.5 µM | [44] 27.5 µM | [46] 53.6 µM | [47] 16.8 µM | [48] > 100 µM | [49] 29.4 µM | [50] 15.8 µM | [51] 26.1 µM | [52] 27.2 µM
28.1 µM: [45]
active: [20] 0.873 µM

O=C1N/C(=N/N=C/c2c[nH]c3ccccc23)N/C1=C\c1c[nH]c2ccccc12
inactive: [1] 12.9 µM | [2] 23.1 µM | [53] 18.9 µM | [3] 25.6 µM | [4] 18.9 µM | [5] 35.9 µM | [6] 69.7 µM | [7] 39.4 µM | [8] 30.2 µM | [9] 22.1 µM | [10] 28.5 µM | [11] 17.3 µM | [12] 18.2 µM | [13] 14.7 µM | [14] 20 µM | [15] 18.2 µM | [16] 19.6 µM | [17] 94.2 µM | [18] 19.1 µM | [19] 27 µM | [54] 28.6 µM | [20] 15.7 µM | [21] 36.8 µM | [22] 20.3 µM | [23] 17 µM | [24] 15.8 µM | [25] 20.4 µM | [26] 17.4 µM | [27] 19.7 µM | [28] 21.4 µM | [29] 16 µM | [30] 29 µM | [55] 16.8 µM | [31] 10.5 µM | [32] 19.1 µM | [33] 17.8 µM | [56] 26.9 µM | [34] 12.7 µM | [35] 20.3 µM | [36] 27.3 µM | [38] 31 µM | [39] 27.6 µM | [40] 21 µM | [41] 34.9 µM | [57] 11.9 µM | [42] 21.3 µM | [43] 7.74 µM | [44] 18.7 µM | [46] 14.7 µM | [47] 28.6 µM | [48] 22.1 µM | [49] 24.5 µM | [50] 15.5 µM | [51] 17.5 µM | [52] 13.8 µM
23 µM: [45]
